# Reference: patent US4528027A, “Acylthio-substituted triazines” (Shell Oil Company, priority 1984, dated 1985)
# Assay: Approximate solubility in xylene at room temperature
# Format: physicochemical
# Conditions: not given
row,Compound,"Approximate Solubility at Room Temperature, Grams of Compound per 100 Grams of Xylene"
1,"CCN(SC(=O)OC)c1nc(Cl)nc(NC(C)(C)C#N)n1 [Compound 1, 2-chloro-4-(1-cyano-1-methylethylamino)-6-(N-ethyl-N-((methoxycarbonyl)thio))-1,3,5-triazine]",26 Grams of Compound per 100 Gram
2,CCN(SC(=O)OC)c1nc(Cl)nc(NC(C)C)n1 [Compound 5],> 150 Grams of Compound per 100 Gram
3,"CCN(SC(=O)OC)c1nc(NC(C)C)nc(OC)n1 [Compound 14, 2-methoxy-4-(1-methylethylamino)-6-(N-ethyl-N-((methoxycarbonyl)thio))-1,3,5-triazine]",> 150 Grams of Compound per 100 Gram
4,"CCN(SC(=O)OC)c1nc(NC(C)C)nc(SC)n1 [Compound 15, 2-(methylthio)-4-(1-methylethylamino)-6-(N-ethyl-N-((methoxycarbonyl)thio))-1,3,5-triazine]",> 150 Grams of Compound per 100 Gram

# Same assay, conditions: xylene, room temperature
row,Compound,"Approximate Solubility at Room Temperature, Grams of Compound per 100 Grams of Xylene"
1,"CCNc1nc(Cl)nc(NC(C)(C)C#N)n1 [Compound 1B, 2-chloro-4-(1-cyano-1-methylethylamino)-6-ethylamino-1,3,5-triazine, reference compound]",0.3 Grams of Compound per 100 Gram
2,"CCNc1nc(NC(C)C)nc(OC)n1 [Compound 14A, 2-methoxy-4-(1-methylethylamino)-6-ethylamino-1,3,5-triazine, reference compound]",25 Grams of Compound per 100 Gram
